Measured values reported in patent US7939548B2, “Certain chemical entities, compositions, and methods” (Cytokinetics, Inc., priority 2006, dated 2011).

Target: T1, chicken gizzard smooth muscle myosin subfragment-1 chemically crosslinked to either cardiac or skeletal actin (Gallus gallus, UniProt P10587)
T1 construct: chicken gizzard smooth muscle myosin subfragment-1
Test: Smooth muscle myosin ATPase dose response assay (pyruvate kinase/horseradish peroxidase/pyruvate oxidase-coupled)
Assay type: biochemical
Details: ATPase activity of crosslinked smooth muscle actomyosin (subfragment-1); amplex red fluorescence; 4 parameter fit; read-out: IC50 Arithmetic Mean
Experimental: Screening assays were performed using a pyruvate kinase and lactate dehydrogenase-coupled ATPase assay containing the following reagents: Potassium PIPES (50 mM), MgCl2 (3 mM), KCl (100 mM), ATP (0.15 mM), DTT (1 mM), BSA (0.1 mg/ml), NADH (0.5 mM), PEP (1.5 mM), pyruvate kinase (4 U/ml), lactate dehydrogenase (8 U/ml), and antifoam (50 ppm) (concentrations expressed are final assay concentrations). The pH was adjusted to 6.80 at 22 °C by addition of potassium hydroxide. Lead optimization assays were performed with a more sensitive pyruvate kinase/horseradish peroxidase/pyruvate oxidase-coupled ATPase assay containing the following reagents: Potassium PIPES (12 mM), MgCl2 (2 mM), KCl (100 mM), ATP (0.15 mM), BSA (0.05 mg/ml), potassium phosphate (2 mM), amplex red (0.1 mM), PEP (0.1 mM), pyruvate kinase (4 U/ml), horseradish peroxidase (0.5 U/ml), pyruvate oxidase (0.5 U/ml), and antifoam (50 ppm) (concentrations expressed are final assay concentrations). The pH was adjusted to 7.00 at 22 °C by addition of potassium hydroxide.
The protein components specific to this assay are chicken gizzard smooth muscle myosin subfragment-1 that has been chemically crosslinked to either cardiac or skeletal actin using an excess of 1-Ethyl-3-[3-dimethylaminopropyl]carbodiimide hydrochloride and N-hydroxysuccinimide. The exact concentration of the crosslinked smooth muscle myosin in the assay is determined empirically, by titration to achieve a desired rate of ATP hydrolysis. The concentration varies between protein preparations due to variations in the fraction of active molecules in each preparation.
Compound dose response assays are performed by first preparing a dilution series of test compound, each with an assay mixture containing potassium PIPES, MgCl2, KCl, ATP, BSA, potassium phosphate, amplex red, PEP, crosslinked smooth muscle actomyosin (subfragment-1), antifoam, and water. The assay is started by adding an equal volume of solution containing potassium Pipes, MgCl2, KCl, BSA, potassium phosphate, pyruvate kinase, horseradish peroxidase, pyruvate oxidase, antifoam, and water. ATP hydrolysis is monitored by measuring the fluorescence of amplex red (excitation at 480 nm, emission at 615 nm). The resulting dose response curve is fit by the 4 parameter equation y=Bottom+((Top-Bottom)/(1+((IC50/X)^Hill))). The IC50 is defined as the concentration at which ATPase activity is midway between the top and bottom of the dose response curve.

SMILES	IC50 [µM]
CNC(=O)CNC(=O)c1cc(-c2ccccc2)cnc1NCCc1cccc(F)c1 [2-[(2-{[2-(3-fluorophenyl)ethyl]amino}-5-phenyl(3-pyridyl))carbonylamino]-N-methylacetamide]	15
CNC(=O)CNC(=O)c1cc(-c2ccccc2C#N)cnc1NCCc1cccc(F)c1 [2-[(5-(2-cyanophenyl)-2-{[2-(3-fluorophenyl)ethyl]amino}(3-pyridyl))carbonylamino]-N-methylacetamide]	18
CN(C)C(=O)CCCNc1ccc(C(=O)NCc2cccnc2)c(NCCc2cccc(F)c2)n1 [4-[(6-{[2-(3-fluorophenyl)ethyl]amino}-5-[N-(3-pyridylmethyl)carbamoyl](2-pyridyl))amino]-N,N-dimethylbutanamide]	70.3
CN(C)C(=O)CCCCNc1ccc(C(=O)NCc2cccnc2)c(NCCc2cccc(F)c2)n1 [5-[(6-{[2-(3-fluorophenyl)ethyl]amino}-5-[N-(3-pyridylmethyl)carbamoyl](2-pyridyl))amino]-N,N-dimethylpentanamide]	55.1
O=C(CCCCNc1ccc(C(=O)NCc2cccnc2)c(NCCc2cccc(F)c2)n1)NCc1cccnc1 [5-[(6-{[2-(3-fluorophenyl)ethyl]amino}-5-[N-(3-pyridylmethyl)carbamoyl](2-pyridyl))amino]-N-(3-pyridylmethyl)pentanamide]	49.2
CNC(=O)CCCCNc1ccc(C(=O)NCc2cccnc2)c(NCCc2cccc(F)c2)n1 [5-[(6-{[2-(3-fluorophenyl)ethyl]amino}-5-[N-(3-pyridylmethyl)carbamoyl](2-pyridyl))amino]-N-methylpentanamide]	38
O=C(O)c1cc(Br)cnc1NCCc1cccc(F)c1 [5-bromo-2-{[2-(3-fluorophenyl)ethyl]amino}pyridine-3-carboxylic acid]	11.2
NC(=O)c1ccc(C(=O)NCc2cccnc2)c(NCCc2cccc(F)c2)n1 [6-{[2-(3-fluorophenyl)ethyl]amino}-5-[N-(3-pyridylmethyl)carbamoyl]pyridine-2-carboxamide]	14
N=C(N)c1ccc(C(=O)NCc2cccnc2)c(NCCc2cccc(F)c2)n1 [6-{[2-(3-fluorophenyl)ethyl]amino}-5-[N-(3-pyridylmethyl)carbamoyl]pyridine-2-carboxamidine]	6.62
O=C(NCc1cccnc1)c1cccnc1NCCc1cccc(F)c1 [(2-{[2-(3-fluorophenyl)ethyl]amino}(3-pyridyl))-N-(3-pyridylmethyl)carboxamide]	26.8
CC(C)=Cc1ccc(C(=O)NCc2cccnc2)c(NCCc2cccc(F)c2)n1 [(2-{[2-(3-fluorophenyl)ethyl]amino}-6-(2-methylprop-1-enyl)(3-pyridyl))-N-(3-pyridylmethyl)carboxamide]	0.347
COCCCc1ccc(C(=O)NCc2cccnc2)c(NCCc2cccc(F)c2)n1 [(2-{[2-(3-fluorophenyl)ethyl]amino}-6-(3-methoxypropyl)(3-pyridyl))-N-(3-pyridylmethyl)carboxamide]	8.18
CNC(=O)c1ccc(C(=O)NCc2cccnc2)c(NCCc2cccc(F)c2)n1 [(2-{[2-(3-fluorophenyl)ethyl]amino}-6-(N-methylcarbamoyl)(3-pyridyl))-N-(3-pyridylmethyl)carboxamide]	44.1
CNc1ccc(C(=O)NCc2cccnc2)c(NCCc2cccc(F)c2)n1 [(2-{[2-(3-fluorophenyl)ethyl]amino}-6-(methylamino)(3-pyridyl))-N-(3-pyridylmethyl)carboxamide]	10.9
O=C(NCc1cccnc1)c1ccc(NCCO)nc1NCCc1cccc(F)c1 [(2-{[2-(3-fluorophenyl)ethyl]amino}-6-[(2-hydroxyethyl)amino](3-pyridyl))-N-(3-pyridylmethyl)carboxamide]	13.1
CN(CCO)c1ccc(C(=O)NCc2cccnc2)c(NCCc2cccc(F)c2)n1 [(2-{[2-(3-fluorophenyl)ethyl]amino}-6-[(2-hydroxyethyl)methylamino](3-pyridyl))-N-(3-pyridylmethyl)carboxamide]	45.4
CC(O)CN(C)c1ccc(C(=O)NCc2cccnc2)c(NCCc2cccc(F)c2)n1 (stereo not drawn) [(2-{[2-(3-fluorophenyl)ethyl]amino}-6-[(2-hydroxypropyl)methylamino](3-pyridyl))-N-(3-pyridylmethyl)carboxamide]	10.5

SMILES	IC50 [µM]
COCCNc1ccc(C(=O)NCc2cccnc2)c(NCCc2cccc(F)c2)n1 [(2-{[2-(3-fluorophenyl)ethyl]amino}-6-[(2-methoxyethyl)amino](3-pyridyl))-N-(3-pyridylmethyl)carboxamide]	7.62
O=C(NCc1cccnc1)c1ccc(NCc2ccccn2)nc1NCCc1cccc(F)c1 [(2-{[2-(3-fluorophenyl)ethyl]amino}-6-[(2-pyridylmethyl)amino](3-pyridyl))-N-(3-pyridylmethyl)carboxamide]	10.8
O=C(NCc1cccnc1)c1ccc(NCCCO)nc1NCCc1cccc(F)c1 [(2-{[2-(3-fluorophenyl)ethyl]amino}-6-[(3-hydroxypropyl)amino](3-pyridyl))-N-(3-pyridylmethyl)carboxamide]	8.47
COCCCNc1ccc(C(=O)NCc2cccnc2)c(NCCc2cccc(F)c2)n1 [(2-{[2-(3-fluorophenyl)ethyl]amino}-6-[(3-methoxypropyl)amino](3-pyridyl))-N-(3-pyridylmethyl)carboxamide]	11
O=C(NCc1cccnc1)c1ccc(NCc2cccnc2)nc1NCCc1cccc(F)c1 [(2-{[2-(3-fluorophenyl)ethyl]amino}-6-[(3-pyridylmethyl)amino](3-pyridyl))-N-(3-pyridylmethyl)carboxamide]	5.61
O=C(NCc1cccnc1)c1ccc(NCc2ccncc2)nc1NCCc1cccc(F)c1 [(2-{[2-(3-fluorophenyl)ethyl]amino}-6-[(4-pyridylmethyl)amino](3-pyridyl))-N-(3-pyridylmethyl)carboxamide]	34
O=C(NCc1ccccn1)c1cc(Br)cnc1NCCc1cccc(F)c1 [(5-bromo-2-{[2-(3-fluorophenyl)ethyl]amino}(3-pyridyl))-N-(2-pyridylmethyl)carboxamide]	11.8
Cc1cccc(CNC(=O)c2cc(Br)cnc2NCCc2cccc(F)c2)n1 [(5-bromo-2-{[2-(3-fluorophenyl)ethyl]amino}(3-pyridyl))-N-[(6-methyl(2-pyridyl))methyl]carboxamide]	17.7
O=C(NCc1ccccn1)c1cc(Br)c(Cl)nc1NCCc1cccc(F)c1 [(5-bromo-6-chloro-2-{[2-(3-fluorophenyl)ethyl]amino}(3-pyridyl))-N-(2-pyridylmethyl)carboxamide]	17.3
N#Cc1cnc(NCCc2cccc(F)c2)c(C(=O)NCc2ccccn2)c1 [(5-cyano-2-{[2-(3-fluorophenyl)ethyl]amino}(3-pyridyl))-N-(2-pyridylmethyl)carboxamide]	12.7
CC(C)=C(C)c1ccc(C(=O)NCc2cccnc2)c(NCCc2cccc(F)c2)n1 [(6-(1,2-dimethylprop-1-enyl)-2-{[2-(3-fluorophenyl)ethyl]amino}(3-pyridyl))-N-(3-pyridylmethyl)carboxamide]	2.77
C=C(OCC)c1ccc(C(=O)NCc2cccnc2)c(NCCc2cccc(F)c2)n1 [(6-(1-ethoxyvinyl)-2-{[2-(3-fluorophenyl)ethyl]amino}(3-pyridyl))-N-(3-pyridylmethyl)carboxamide]	0.702
COC/C=C/c1ccc(C(=O)NCc2cccnc2)c(NCCc2cccc(F)c2)n1 [(6-((1E)-3-methoxyprop-1-enyl)-2-{[2-(3-fluorophenyl)ethyl]amino}(3-pyridyl))-N-(3-pyridylmethyl)carboxamide]	0.927
C/C=C/c1ccc(C(=O)NCc2cccnc2)c(NCCc2cccc(F)c2)n1 [(6-((1E)prop-1-enyl)-2-{[2-(3-fluorophenyl)ethyl]amino}(3-pyridyl))-N-(3-pyridylmethyl)carboxamide]	0.302
C/C=C/c1ccc(C(=O)NCc2cccnc2CN)c(NCCc2cccc(F)c2)n1 [(6-((1E)prop-1-enyl)-2-{[2-(3-fluorophenyl)ethyl]amino}(3-pyridyl))-N-{[2-(aminomethyl)(3-pyridyl)]methyl}carboxamide]	0.038
C/C=C/c1nc(NCCc2cccc(F)c2)c(C(=O)NCc2cccnc2)cc1Br [(6-((1E)prop-1-enyl)-5-bromo-2-{[2-(3-fluorophenyl)ethyl]amino}(3-pyridyl))-N-(3-pyridylmethyl)carboxamide]	0.78
